Laboratory results reported in patent US12391737B2, “Soluble NPY2 receptor agonists” (Boehringer Ingelheim International GmbH, priority 2020, dated 2025).

Tests used:
[1] = target: T1, Human Neuropeptide Y2 Receptor (Homo sapiens, UniProt P49146); experiment: Radioligand binding competition assay (RLB); details: Table 3, 125I-PYY(1-36) competition; read-out: Ki
T1 construct: purchased CHEMICON HTS066M
T1 sequence (P49146 1-381): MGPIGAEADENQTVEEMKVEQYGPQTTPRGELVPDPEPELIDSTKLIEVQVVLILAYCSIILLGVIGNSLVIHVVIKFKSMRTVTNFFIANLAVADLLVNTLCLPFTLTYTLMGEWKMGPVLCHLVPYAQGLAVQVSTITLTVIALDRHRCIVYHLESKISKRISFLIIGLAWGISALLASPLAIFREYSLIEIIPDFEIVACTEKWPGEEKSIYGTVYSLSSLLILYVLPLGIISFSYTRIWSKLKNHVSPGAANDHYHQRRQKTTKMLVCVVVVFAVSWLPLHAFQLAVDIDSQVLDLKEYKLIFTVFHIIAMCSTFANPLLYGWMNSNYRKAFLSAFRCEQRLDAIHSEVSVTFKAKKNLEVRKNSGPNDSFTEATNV
Method in brief: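 Filtration competition binding on membranes from cells expressing the receptor, 0.5 μg protein/well, in 50 mM HEPES, 5 mM MgCl2, 1 mM CaCl2, pH 7.4, with 0.2% ovalbumin. Incubation ran 2 h at room temperature, followed by GF/C filtration and scintillation counting. IC50 came from nonlinear sigmoidal fits.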

Solubility determination = details: for Sol6: pH 6; for Sol7: pH 7
Method in brief: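 Sample: TFA-salt peptide at 10 mg/ml target in 0.1 M Na diphosphate, pH 6.4 or 7.0, shaken 2 h RT, filtered, diluted to 1 mg/ml.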

Ki [1] [nM]	Sol6 (Solubility determination) [mg/mL]	Sol7 (Solubility determination) [mg/mL]	SMILES
3.37	9.7	10.0	CC(C)CC(=O)N[C@@H](C)C(=O)N1CCC[C@H]1C(=O)N[C@@H](CCC(=O)O)C(=O)N[C@@H](CCCCNC(=O)CCCCCNC(=O)CC[C@H](NC(=O)CCCCCCCCCCCCCCCCC(=O)O)C(=O)O)C(=O)N1CCC[C@H]1C(=O)N[C@@H](CCC(=O)O)C(=O)N[C@@H](CCC(=O)O)C(=O)N[C@@H](CC(=O)O)C(=O)N[C@@H](C)C(=O)N[C@@H](CO)C(=O)N1CCC[C@H]1C(=O)N[C@@H](CCC(=O)O)C(=O)N[C@@H](CCC(=O)O)C(=O)N[C@@H](CC(C)C)C(=O)N[C@@H](CCC(N)=O)C(=O)N[C@@H](CCCNC(=N)N)C(=O)N[C@@H](Cc1ccc(O)cc1)C(=O)N[C@@H](Cc1ccc(O)cc1)C(=O)N[C@H](C(=O)N[C@@H](CCC(=O)O)C(=O)N[C@@H](CC(C)C)C(=O)N[C@@H](CCCNC(=N)N)C(=O)N[C@@H](Cc1c[nH]cn1)C(=O)N[C@@H](Cc1ccc(O)cc1)C(=O)N[C@@H](Cc1ccc(O)cc1)C(=O)N[C@@H](CC(N)=O)C(=O)N[C@@H](Cc1c[nH]c2ccccc12)C(=O)N[C@@H](CC(C)C)C(=O)N[C@H](C(=O)N[C@@H](CCCNC(=N)N)C(=O)N[C@@H](CCC(N)=O)C(=O)N[C@@H](CCCNC(=N)N)C(=O)N[C@@H](Cc1ccc(O)cc1)C(N)=O)[C@@H](C)O)C(C)C [Compound 125, N{alpha-4}-(3-methylbutanoyl)-N{epsilon-7}-(6-[(4S)-4-carboxy-4-(17-carboxyheptadecanamido)butanamido]hexanoyl)-[4A,7K,9E,18Q,22V,23E,28Y,30W,31L]-hPYY(4-36)]
4.07	9.2	9.6	CC(C)CC(=O)N[C@@H](C)C(=O)N1CCC[C@H]1C(=O)N[C@@H](CCC(=O)O)C(=O)N[C@@H](CCCCNC(=O)CCCCCNC(=O)CC[C@H](NC(=O)CCCCCCCCCCCCCCCCC(=O)O)C(=O)O)C(=O)N1CCC[C@H]1C(=O)N[C@@H](CCC(=O)O)C(=O)N[C@@H](CCC(=O)O)C(=O)N[C@@H](CC(=O)O)C(=O)N[C@@H](C)C(=O)N[C@H](C(=O)N1CCC[C@H]1C(=O)N[C@@H](CCC(=O)O)C(=O)N[C@@H](CCC(=O)O)C(=O)N[C@@H](CC(C)C)C(=O)N[C@@H](CCC(N)=O)C(=O)N[C@@H](CCCNC(=N)N)C(=O)N[C@@H](Cc1ccc(O)cc1)C(=O)N[C@@H](Cc1ccc(O)cc1)C(=O)N[C@H](C(=O)N[C@@H](CO)C(=O)N[C@@H](CC(C)C)C(=O)N[C@@H](CCCNC(=N)N)C(=O)N[C@@H](Cc1c[nH]cn1)C(=O)N[C@@H](Cc1ccc(O)cc1)C(=O)N[C@@H](Cc1ccc(O)cc1)C(=O)N[C@@H](CC(N)=O)C(=O)N[C@@H](Cc1c[nH]c2ccccc12)C(=O)N[C@@H](CC(C)C)C(=O)N[C@H](C(=O)N[C@@H](CCCNC(=N)N)C(=O)N[C@@H](CCC(N)=O)C(=O)N[C@@H](CCCNC(=N)N)C(=O)N[C@@H](Cc1ccc(O)cc1)C(N)=O)[C@@H](C)O)C(C)C)[C@@H](C)O [Compound 173, N{alpha-4}-(3-methylbutanoyl)-N{epsilon-7}-(6-[(4S)-4-carboxy-4-(17-carboxyheptadecanamido)butanamido]hexanoyl)-[4A,7K,9E,13T,18Q,22V,28Y,30W,31L]-hPYY(4-36)]
4.58	0.0	9.5	CC[C@H](C)[C@H](NC(=O)[C@H](CCC(=O)O)NC(=O)[C@H](CCC(=O)O)NC(=O)[C@@H]1CCCN1C(=O)[C@H](CCC(=O)O)NC(=O)[C@H](C)NC(=O)[C@H](C)NC(=O)[C@H](CCC(=O)O)NC(=O)[C@H](CCC(=O)O)NC(=O)[C@@H]1CCCN1C(=O)[C@H](CCCCNC(=O)CCCCCNC(=O)CC[C@H](NC(=O)CCCCCCCCCCCCCCCCC(=O)O)C(=O)O)NC(=O)[C@H](C)NC(=O)[C@@H]1CCCN1C(=O)[C@H](C)NC(=O)CC(C)C)C(=O)N[C@@H](CCC(N)=O)C(=O)N[C@@H](CCCNC(=N)N)C(=O)N[C@@H](Cc1ccc(O)cc1)C(=O)N[C@@H](Cc1ccc(O)cc1)C(=O)N[C@H](C(=O)N[C@@H](C)C(=O)N[C@@H](CC(C)C)C(=O)N[C@@H](CCCNC(=N)N)C(=O)N[C@@H](Cc1c[nH]cn1)C(=O)N[C@@H](Cc1ccc(O)cc1)C(=O)N[C@@H](Cc1ccc(O)cc1)C(=O)N[C@@H](CC(N)=O)C(=O)N[C@@H](Cc1c[nH]c2ccccc12)C(=O)N[C@@H](CC(C)C)C(=O)N[C@H](C(=O)N[C@@H](CCCNC(=N)N)C(=O)N[C@@H](CCC(N)=O)C(=O)N[C@@H](CCCNC(=N)N)C(=O)N[C@@H](Cc1ccc(O)cc1)C(N)=O)[C@@H](C)O)C(C)C [Compound 167, N{alpha-4}-(3-methylbutanoyl)-N{epsilon-7}-(6-[(4S)-4-carboxy-4-(17-carboxyheptadecanamido)butanamido]hexanoyl)-[4A,6A,7K,9E,11A,13E,17I,18Q,22V,23A,28Y,30W,31L]-hPYY(4-36)]
5.82	9.7	9.8	CC(C)CC(=O)N[C@@H](C)C(=O)N1CCC[C@H]1C(=O)N[C@@H](CCC(=O)O)C(=O)N[C@@H](CCCCNC(=O)CCCCCNC(=O)CC[C@H](NC(=O)CCCCCCCCCCCCCCCCC(=O)O)C(=O)O)C(=O)N1CCC[C@H]1C(=O)N[C@@H](CCC(=O)O)C(=O)N[C@@H](CCC(=O)O)C(=O)N[C@@H](CC(=O)O)C(=O)N[C@@H](C)C(=O)N[C@@H](CCC(=O)O)C(=O)N1CCC[C@H]1C(=O)N[C@@H](CCC(=O)O)C(=O)N[C@@H](CCC(=O)O)C(=O)N[C@@H](CC(C)C)C(=O)N[C@@H](CCC(N)=O)C(=O)N[C@@H](C)C(=O)N[C@@H](Cc1ccc(O)cc1)C(=O)N[C@@H](Cc1ccc(O)cc1)C(=O)N[C@H](C(=O)N[C@@H](CO)C(=O)N[C@@H](CC(C)C)C(=O)N[C@@H](CCCNC(=N)N)C(=O)N[C@@H](Cc1c[nH]cn1)C(=O)N[C@@H](Cc1ccc(O)cc1)C(=O)N[C@@H](Cc1ccc(O)cc1)C(=O)N[C@@H](CC(N)=O)C(=O)N[C@@H](Cc1c[nH]c2ccccc12)C(=O)N[C@@H](CC(C)C)C(=O)N[C@H](C(=O)N[C@@H](CCCNC(=N)N)C(=O)N[C@@H](CCC(N)=O)C(=O)N[C@@H](CCCNC(=N)N)C(=O)N[C@@H](Cc1ccc(O)cc1)C(N)=O)[C@@H](C)O)C(C)C [Compound 169, N{alpha-4}-(3-methylbutanoyl)-N{epsilon-7}-(6-[(4S)-4-carboxy-4-(17-carboxyheptadecanamido)butanamido]hexanoyl)-[4A,7K,9E,13E,18Q,19A,22V,28Y,30W,31L]-hPYY(4-36)]
